For the experiment, the target named is T1, DPP-IV (Homo sapiens, UniProt P27487).
T1 construct: Soluble human DPP-IV lacking the transmembrane anchor (Gly31-Pro766); Pre-Pro-alpha-mating factor leader (secretion signal) (N, cleaved yes); made in house
Put plainly: Inhibition of DPP-IV peptidase activity, continuous fluorimetric assay (Gly-Pro-AMC cleavage). The experiment is classed as biochemical. The settings on record: 16 μM Gly-Pro-AMC, pH 7.4, 25° C., 1% DMSO. How it is done: Inhibition of DPP-IV peptidase activity was monitored with a continuous fluorimetric assay. This assay is based on the cleavage of the substrate Gly-Pro-AMC (Bachem) by DPP-IV, releasing free AMC. The assay is carried out in 96-well microtiterplates. In a total volume of 100 μL, compounds are preincubated with […] employing a buffer containing 10 mM Hepes, 150 mM NaCl, 0.005% Tween 20 (pH 7.4). […] The final concentration of DMSO is 1%. The inhibitory potential of the compounds were determined.
Soluble human DPP-IV lacking the transmembrane anchor (Gly31-Pro766) was expressed in a recombinant YEAST-strain as Pre-Pro-alpha-mating fusion.

Structures are written as SMILES. A value given as a limit tells only on which side of the number the result lay.

T1 sequence (P27487 31-766): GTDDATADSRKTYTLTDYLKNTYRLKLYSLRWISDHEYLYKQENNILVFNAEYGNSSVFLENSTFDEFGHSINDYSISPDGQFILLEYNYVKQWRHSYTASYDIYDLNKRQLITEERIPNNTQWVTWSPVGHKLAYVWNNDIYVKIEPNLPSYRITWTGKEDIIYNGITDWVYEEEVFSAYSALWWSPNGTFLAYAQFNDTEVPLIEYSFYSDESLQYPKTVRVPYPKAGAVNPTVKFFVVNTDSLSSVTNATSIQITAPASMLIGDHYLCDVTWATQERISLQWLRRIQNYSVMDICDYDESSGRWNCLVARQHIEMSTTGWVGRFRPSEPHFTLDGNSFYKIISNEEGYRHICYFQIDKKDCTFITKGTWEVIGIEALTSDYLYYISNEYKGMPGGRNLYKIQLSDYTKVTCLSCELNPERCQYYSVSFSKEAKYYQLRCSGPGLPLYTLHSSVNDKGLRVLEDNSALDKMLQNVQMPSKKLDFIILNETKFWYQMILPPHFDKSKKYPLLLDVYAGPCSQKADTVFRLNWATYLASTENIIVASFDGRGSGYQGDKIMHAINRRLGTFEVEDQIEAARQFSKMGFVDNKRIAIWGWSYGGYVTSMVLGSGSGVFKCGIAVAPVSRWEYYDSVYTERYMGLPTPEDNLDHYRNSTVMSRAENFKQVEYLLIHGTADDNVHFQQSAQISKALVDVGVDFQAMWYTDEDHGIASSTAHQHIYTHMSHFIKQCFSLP

Take `N[C@@H](CC(=O)N1CCC[C@H]1CNC(=O)c1ccccc1)Cc1cccc(Cl)c1` [Example 45]: the IC50 (in general, the midpoint of a concentration-inhibition curve) was less than 100 nM.

Values taken from US20080027035A1, “Dpp-Iv Inhibitors” (GRAFFINITY PHARMACEUTICALS AG, priority 2003, published 2008).
